This note sets out measurements from patent US7622497B2, “Derivatives of gambogic acid and analogs as activators of caspases and inducers of apoptosis” (Cytovia, Inc., priority 2003, dated 2009).

Assay [1] concerns DLD. Put plainly: Caspase cascade activation (DEVD-R110 fluorogenic substrate) in DLD cells. The format is cell-based, Human. The conditions noted are these: 24 h incubation; for EC50: Homo sapiens, read-out: Caspase potency EC50 DLD; for Caspase activity (Ratio) DLD: ratio of net RFU of compound to control, 0.16 to 10 μM final. Here is the method:
(§1) Human breast cancer cell lines T-47D and DLD were grown according to media component mixtures designated by American Type Culture Collection+10% FCS Invitrogen Corporation), in a 5% CO2-95% humidity incubator at 37° C. T-47D and DLD cells were maintained at a cell density between 30 and 80% confluency and for HL-60 at a cell density of 0.1 to 0.6×10^6 cells/ml. Cells were harvested at 600×g and resuspended at 0.65×10^6 cells/mL into appropriate media+10% FCS. An aliquot of 45 μl of cells was added to a well of a 96-well microtiter plate containing 5 μl of a 10% DMSO in RPMI-1640 media solution containing 1.6 to 100 μM of novel derivative of gambogic acid (0.16 to 10 μM final). An aliquot of 45 μl of cells was added to a well of a 96-well microtiter plate containing 5 μl of a 10%. DMSO in RPMI-1640 media solution without test compound as the control sample. The samples were mixed by agitation and then incubated at 37° C. for 24 h in a 5% CO2-95% humidity incubator. After incubation, the samples were removed from the incubator and 50 μl of a solution containing 20 μM of N-(Ac-DEVD)-N′-ethoxycarbonyl-R110 fluorogenic substrate SEQ ID NO:1 (Cytovia, Inc.; U.S. Pat. No. 6,335,429), 20% sucrose (Sigma), 20 mM DTT (Sigma), 200 mM NaCl (Sigma), 40 mM Na PIPES buffer pH 7.2 (Sigma), and 500 μg/ml lysolecithin (Calbiochem) was added. The samples were mixed by agitation and incubated at room temperature. Using a fluorescent plate reader (Model 1420 Wallac Instruments), an initial reading (T=0) was made approximately 1-2 min after addition of the substrate solution, employing excitation at 485 nm and emission at 530 nm, to determine the background fluorescence of the control sample. After approximately 3 h of incubation, the samples were read for fluorescence as above (T=3 h).
(§2) The Relative Fluorescence Unit values (RFU) were used to calculate the sample readings as follows: RFU(T=3h)−Control RFU(T=0)=Net RFU(T=3h)
(§3) The activity of caspase cascade activation was determined by the ratio of the net RFU value for derivatives of gambogic acid to that of control samples. The EC50 (nM) was determined by a sigmoidal dose-response calculation (Prism 2.0, GraphPad Software Inc.).

Assay [2] deals with T-47D. Put plainly: Caspase cascade activation (DEVD-R110 fluorogenic substrate) in T-47D cells. The assay is classed as cell-based, Human. The conditions noted are these: 24 h incubation; for EC50: Homo sapiens, T47D, read-out: Caspase potency EC50 T-47D; for Caspase activity (Ratio) T-47D: ratio of net RFU of compound to control, 0.16 to 10 μM final. The method, then:
as §1, §2, §3

In assay [3] the test system is H1299. Put plainly: Inhibition of cell proliferation (GI50), H1299. Particulars: Homo sapiens, NCI-H1299; H1299 cells, 48 h, CellTiter 96 AQueous. The format is cell-based. Here is the method:
(§4) T-47D, DLD-1, MX-1, SW620, H1299, HEK293T and HEK293H cells were grown and harvested as in Example 11. An aliquot of 90 μL of cells (2.2×10^4 cells/mL) was added to a well of a 96-well microtiter plate containing 10 μl of a 10% DMSO in RPMI-1640 media solution containing 1 nM to 100 μM of novel derivative of gambogic acid (Example 2; 0.1 nM to 10 μM final). An aliquot of 90 μL of cells was added to a well of a 96-well microtiter plate containing 10 μL of a 10% DMSO in RPMI-1640 media solution without compound as the control sample for maximal cell proliferation (AMax). The samples were mixed by agitation and then incubated at 37° C. for 48 h in a 5% CO2-95% humidity incubator. After incubation, the samples were removed from the incubator and 20 μL of CellTiter 96 AQUEOUS One Solution Cell Proliferation™ reagent (Promega) was added. The samples were mixed by agitation and incubated at 37° C. for 2-4 h in a 5% CO2-95% humidity incubator. Using an absorbance plate reader (Model 1420 Wallac Instruments), an initial reading (T=0) was made approximately 1-2 min after addition of the solution, employing absorbance at 490 nm. This determines the possible background absorbance of the test compounds. No absorbance for the derivative of gambogic acid was found at 490 nm. After the 2-4 h incubation, the samples were read for absorbance as above (ATest). […]

The subject of assay [4] is SW620. Nature of the assay: Inhibition of cell proliferation (GI50), SW620. Particulars: Homo sapiens, SW-620; SW620 cells, 48 h, CellTiter 96 AQueous. The assay is classed as cell-based. The method, then: as §4
Assay [5] has as its system MX-1. Put plainly: Inhibition of cell proliferation (GI50), MX-1. Particulars: Homo sapiens, MX1; MX-1 cells, 48 h, CellTiter 96 AQueous. The assay is classed as cell-based. Here is the method: as §4
Assay [6] has as its system HEK293H. Put plainly: Inhibition of cell proliferation (GI50), HEK293H. The assay is classed as cell-based. Particulars: HEK293-H; HEK293H cells, 48 h, CellTiter 96 AQueous. Here is the method:
as §4

Assay [7] deals with DLD. Put plainly: Inhibition of cell proliferation (GI50), DLD. The conditions noted are these: Homo sapiens; DLD cells, 48 h, CellTiter 96 AQueous. The format is cell-based. The method, then: as §4
For assay [8], the system named is HEK293T. Nature of the assay: Inhibition of cell proliferation (GI50), HEK293T. The format is cell-based. Particulars: Homo sapiens, HEK-293T; HEK293T cells, 48 h, CellTiter 96 AQueous. The method, then: as §4
In assay [9] the test system is T47D. Nature of the assay: Inhibition of cell proliferation (GI50), T47D. Particulars: Homo sapiens; T47D cells, 48 h, CellTiter 96 AQueous. The format is cell-based. The method, then:
as §4

With `COC(=O)/C(C)=C\CC12OC(C)(C)C3CC(C1=O)C(N1CCOCC1)C1C(=O)c4c(O)c5c(c(CC=C(C)C)c4OC132)OC(C)(CCC=O)C=C5` (centres unmarked) [Example 7, Methyl 20-Ethylaldehyde-9,10-dihydro-10-morpholinyl-morellinate], in [1], the EC50 came to 1360 nM and the “Caspase activity (Ratio) DLD” value is listed as 5.8. For the same compound, in assay [2], the EC50 is 1110 nM and the “Caspase activity (Ratio) T-47D” value amounted to 16.
For the compound `COC(=O)/C(C)=C\CC12OC(C)(C)C3CC(C=C4C(=O)c5c(O)c6c(c(CC=C(C)C)c5OC431)OC(C)(CCC(O)C(C)(C)O)C=C6)C2=O` (centres unmarked) [Example 5, Methyl 37,38-Dihydroxy-gambogate], in assay [1], the EC50 is 1290 nM and the “Caspase activity (Ratio) DLD” value is 7.2. In assay [2], the 50% effective concentration (EC50) was found to be 750 nM and the “Caspase activity (Ratio) T-47D” value is 17.
In the case of `CC(C)=CCCC1(C)C=Cc2c(O)c3c(c(CC=C(C)C)c2O1)OC12C(=CC4CC1C(C)(C)OC2(C/C=C(/C)C(=O)NCCCN1CCOCC1)C4=O)C3=O` (centres unmarked) [Example 4, N-(3-Morpholin-4-yl-propyl)gambogamide], in assay [1], the EC50 was determined as 824 nM and the “Caspase activity (Ratio) DLD” value is listed as 7.2. In addition, in [2], the EC50 stood at 638 nM and the “Caspase activity (Ratio) T-47D” value is recorded as 15.
In the case of `CC(C)=CCCC1(C)C=Cc2c(O)c3c(c(CC=C(C)C)c2O1)OC12C(=CC4CC1C(C)(C)OC2(C/C=C(/C)C(=O)NCCCN1CCN(C)CC1)C4=O)C3=O` (centres unmarked) [Example 3, N-[3-(4-Methyl-piperazin-1-yl)-propyl]gambogamide], in assay [1], the EC50 is 2120 nM and the “Caspase activity (Ratio) DLD” value is 5.8. In addition, in assay [2], the EC50 amounted to 1660 nM and the “Caspase activity (Ratio) T-47D” value was found to be 13.
On to `CC(C)=CCCC1(C)C=Cc2c(O)c3c(c(CC=C(C)C)c2O1)OC12C(=CC4CC1C(C)(C)OC2(C/C=C(/C)C(=O)OCCN(C)C)C4=O)C3=O` (centres unmarked) [Example 2, 2-Dimethylaminoethyl gambogate], for which the GI50 in assay [3] stood at 184 nM; in [4] it was 180 nM; in assay [5], 101 nM; in assay [6], 192 nM; in assay [7], 173 nM; in assay [8], 440 nM. Moreover, the GI50 in [9] turned out to be 187 nM. For the same compound, the EC50 in [1] came to 1040 nM; in assay [2] it was 676 nM. In assay [1], the “Caspase activity (Ratio) DLD” value came to 7.2. Further, the “Caspase activity (Ratio) T-47D” value in [2] is on record as 17.
Turning to `COC(=O)/C(C)=C\CC12OC(C)(C)C3CC(C1=O)C(N1CCOCC1)C1C(=O)c4c(O)c5c(c(CC=C(C)C)c4OC132)OC(C)(CCC(O)C(C)(C)O)C=C5` (centres unmarked) [Example 6, Methyl 37,38-Dihydroxy-9,10-dihydro-10-morpholinyl-gambogate], in assay [1], the EC50 amounted to 2400 nM and the “Caspase activity (Ratio) DLD” value is given as 9.2. In assay [2], the EC50 is 1160 nM and the “Caspase activity (Ratio) T-47D” value came to 17.
Take `CC(C)=CCCC1(C)C=Cc2c(O)c3c(c(CC=C(C)C)c2O1)OC12C(=CC4CC1C(C)(C)OC2(C/C=C(/C)C(=O)OCCN1CCOCC1)C4=O)C3=O` (centres unmarked) [Example 1, 2-(Morpholin-4-yl)-ethyl gambogate]: in assay [1], the EC50 worked out at 350 nM and the “Caspase activity (Ratio) DLD” value came to 7.6. Moreover, in [2], the EC50 was found to be 303 nM and the “Caspase activity (Ratio) T-47D” value came out at 18.
